# Test results published in patent US20230263807A1, “TREPROSTINIL ILOPROST COMBINATION THERAPY” (United Therapeutics Corporation, priority 2022, published 2023).
# Where two headings read alike, the source gives them in different places.
# Description: The solubility of iloprost at 100 μg/mL was evaluated at five different pH levels by visual inspection and HPLC-UV analysis. A stock solution of Iloprost was prepared in ethanol at 1 mg/mL. The stock solution was diluted 10-fold in each buffer and mixed well. The buffered solutions were visually inspected for any precipitation. The buffered solutions were filtered with 0.45 μm nylon filters prior to analysis by HPLC.
structure (smiles),measurement,setting,value
CC#CCC(C)[C@H](O)/C=C/[C@@H]1[C@H]2C/C(=C/CCCC(=O)O)C[C@H]2C[C@H]1O (stereo partly shown) [Iloprost],Final pH,"100 μg/mL Iloprost in 10 mM Acetate, initial pH 5.00",5.08
same,Final pH,"100 μg/mL Iloprost in 10 mM Citrate, initial pH 2.89",2.99
same,Final pH,"100 μg/mL Iloprost in 10 mM Phosphate, initial pH 6.23",6.36
same,Final pH,"100 μg/mL Iloprost in 10 mM Phosphate, initial pH 7.27",7.42
same,Final pH,"100 μg/mL Iloprost in 10 mM Phosphate, initial pH 8.60",8.59
same,solubility by chromatographic analysis,pH 2.89,potential solubility issues below pH 6
same,visual solubility,pH 2.89,No visual solubility issues
